Patent US11584765B2 (priority 2017, dated 2023)

System: C57BL/6 mice
Assay: animal or person
Type: in vivo
Details: Mus musculus, sc, 0.5 h, s.c. administration, 30 min, 55° C. water, read-out: ED50 (mg/kg) at 30 min on C57BL/6 mice in Warm-water Tail-flick Test

Compound | ED50 [mg/kg]
CC(=O)Nc1ccc(CN2CCC(/C=C/c3ccccc3)(c3cccc(F)n3)CC2)cc1 [Compound 47, (E)-N-(4-((4-(6-fluoropyridin-2-yl)-4-styrylpiperidin-1-yl)methyl)phenyl)acetamide] | > 10
CC(=O)Nc1ccc(CN2CCC(/C=C/c3ccccc3)(c3cccnc3)CC2)cc1 [Compound 48, (E)-N-(4-((4-(pyridin-3-yl)-4-styrylpiperidin-1-yl)methyl)phenyl)acetamide] | > 10
C=CCC1(c2ccccn2)CCN(Cc2ccc(NC(C)=O)cc2)CC1 [Compound 49, N-(4-((4-allyl-4-(pyridin-2-yl)piperidin-1-yl)methyl)phenyl)acetamide] | > 10
O=C(Nc1ccc(CN2CCC(CCc3ccccc3)(c3ccccn3)CC2)cc1)C(F)(F)F [Compound 50, 2,2,2-trifluoro-N-(4-((4-phenethyl-4-(pyridin-2-yl)piperidin-1-yl)methyl)phenyl)acetamide] | > 10
CC(=O)Nc1ccc(CN2CCC(CCc3ccccc3)(c3ccccn3)CC2)cc1F.Cl [Compound 52, N-(2-fluoro-4-((4-phenethyl-4-(pyridin-2-yl)piperidin-1-yl)methyl)phenyl)acetamide HCl] | > 10
CC(=O)Nc1ccc(CN2CCC(CCc3ccccc3)(c3ccccn3)CC2)c(F)c1 [Compound 53, N-(3-fluoro-4-((4-phenethyl-4-(pyridin-2-yl)piperidin-1-yl)methyl)phenyl)acetamide] | > 10
CNC(=O)c1ccc(CN2CCC(CCc3ccccc3)(c3ccccn3)CC2)cc1 [Compound 54, N-methyl-4-((4-phenethyl-4-(pyridin-2-yl)piperidin-1-yl)methyl)benzamide] | > 10
NC(=O)c1ccc(CN2CCC(CCc3ccccc3)(c3ccccn3)CC2)cc1 [Compound 55, 4-((4-phenethyl-4-(pyridin-2-yl)piperidin-1-yl)methyl)benzamide] | > 10
CC(=O)Nc1ccc(CN2CCC(CCc3ccccc3)(CN(C)C)CC2)cc1 [Compound 56, N-(4-((4-((dimethylamino)methyl)-4-phenethylpiperidin-1-yl)methyl)phenyl)acetamide] | > 10
CC(=O)Nc1ccc(CN2CCC(CCc3ccccc3)(CN(C)C(C)=O)CC2)cc1 [Compound 57, N-((1-(4-acetamidobenzyl)-4-phenethylpiperidin-4-yl)methyl)-N-methylacetamide] | > 10
CC(=O)Nc1ccc(CN2CCC(CCc3ccccc3)(COC(C)=O)CC2)cc1 [Compound 58, (1-(4-acetamidobenzyl)-4-phenethylpiperidin-4-yl)methyl acetate] | > 10
CCOCC1(CCc2ccccc2)CCN(Cc2ccc(NC(C)=O)cc2)CC1 [Compound 59, N-(4-((4-(ethoxymethyl)-4-phenethylpiperidin-1-yl)methyl)phenyl)acetamide] | < 10
CC(=O)Nc1ccc(CN2CCC(CCc3ccccc3)(C(N)=O)CC2)cc1 [Compound 60, 1-(4-acetamidobenzyl)-4-phenethylpiperidine-4-carboxamide] | > 10
Oc1ccc(CN2CCC(CCc3ccccc3)(c3ccccn3)CC2)cc1 [Compound 61, 4-((4-phenethyl-4-(pyridin-2-yl)piperidin-1-yl)methyl)phenol] | > 10
COc1ccc(C2(/C=C/c3ccccc3)CCN(Cc3ccc(NC(C)=O)cc3)CC2)nc1 [Compound 62, (E)-N-(4-((4-(5-methoxypyridin-2-yl)-4-styrylpiperidin-1-yl)methyl)phenyl)acetamide] | > 10
COc1ccc(C2(/C=C\c3ccccc3)CCN(Cc3ccc(NC(C)=O)cc3)CC2)nc1 [Compound 63, (Z)-N-(4-((4-(5-methoxypyridin-2-yl)-4-styrylpiperidin-1-yl)methyl)phenyl)acetamide] | > 10

Compound | ED50 [mg/kg]
CS(=O)(=O)N(c1ccc(CN2CCC(CCc3ccccc3)(c3ccccn3)CC2)cc1)S(C)(=O)=O [Compound 64, N-(methylsulfonyl)-N-(4-((4-phenethyl-4-(pyridin-2-yl)piperidin-1-yl)methyl)phenyl)methane-sulfonamide] | > 10
CNC(=O)C1(CCc2ccccc2)CCN(Cc2ccc(NC(C)=O)cc2)CC1 [Compound 65] | > 10
CC(=O)Nc1ccc(CN2CCC(CCc3ccccc3)(C(=O)N(C)C)CC2)cc1 [Compound 66, 1-(4-acetamidobenzyl)-N,N-dimethyl-4-phenethylpiperidine-4-carboxamide] | > 10
CC(=O)NCC1(CCc2ccccc2)CCN(Cc2ccc(NC(C)=O)cc2)CC1 [Compound 67, N-((1-(4-acetamidobenzyl)-4-phenethylpiperidin-4-yl)methyl)acetamide] | > 10
CC(=O)Nc1ccc(CN2CCC(CO)(CCc3ccccc3)CC2)cc1 [Compound 68, N-(4-((4-(hydroxymethyl)-4-phenethylpiperidin-1-yl)methyl)phenyl)acetamide] | > 10
CC(=O)Nc1ccc(CN2CCC(CCc3ccccc3)(C3CCCO3)CC2)cc1 (centres unmarked) [Compound 69, N-(4-((4-phenethyl-4-(tetrahydrofuran-2-yl)piperidin-1-yl)methyl)phenyl)acetamide] | < 10
CC(=O)Nc1ccc(CN2CCC(CCc3ccccc3)(C3CCCCO3)CC2)cc1 (centres unmarked) [Compound 70, N-(4-((4-phenethyl-4-(tetrahydro-2H-pyran-2-yl)piperidin-1-yl)methyl)phenyl)acetamide] | > 10
CC(=O)Nc1ccc(CN2CCCC(/C=C/c3ccccc3)(c3ccccn3)C2)cc1 (centres unmarked) [Compound 71, (E)-N-(4-((3-(pyridin-2-yl)-3-styrylpiperidin-1-yl)methyl)phenyl)acetamide] | > 10
COCC1(CCc2ccccc2)CCN(Cc2ccc(NC(C)=O)cc2)CC1 [Compound 72, N-(4-((4-(methoxymethyl)-4-phenethylpiperidin-1-yl)methyl)phenyl)acetamide] | > 10
CC(=O)Nc1ccc(CN2CCC(CCc3ccccc3)(C3CC=CCO3)CC2)cc1 (centres unmarked) [Compound 73, N-(4-((4-(3,6-dihydro-2H-pyran-2-yl)-4-phenethylpiperidin-1-yl)methyl)phenyl)acetamide] | > 10
CC(=O)Nc1ccc(CN2CCC(CCc3ccccc3)(C3C=CCO3)CC2)cc1 (centres unmarked) [Compound 74, N-(4-((4-(2,5-dihydrofuian-2-yl)-4-phenethylpiperidin-1-yl)methyl)phenyl)acetamide] | < 10
COC1(CCc2ccccc2)CCN(Cc2ccc(NC(C)=O)cc2)CC1 [Compound 75, N-(4-((4-methoxy-4-phenethylpiperidin-1-yl)methyl)phenyl)acetamide] | > 10
COCCC1(CCc2ccccc2)CCN(Cc2ccc(NC(C)=O)cc2)CC1.Cl [Compound 76, N-(4-((4-(2-methoxyethyl)-4-phenethylpiperidin-1-yl)methyl)phenyl)acetamide HCl] | > 10
CCOC(=O)NCC1(CCc2ccccc2)CCN(Cc2ccc(NC(C)=O)cc2)CC1 [Compound 77, ethyl (1-(4-acetamidobenzyl)-4-phenethylpiperidin-4-yl)methylcarbamate] | > 10
CCOCC1(CCc2ccccc2)CCN(Cc2ccccc2)CC1 [Compound 78, 1-benzyl-4-(ethoxymethyl)-4-phenethylpiperidine] | > 10
CCOCC1(CCc2ccccc2)CCN(C)CC1 [Compound 79, 4-(ethoxymethyl)-1-methyl-4-phenethylpiperidine] | > 10
